Results as given in paper PMC4561889, “Geranylgeranylacetone selectively binds to the HSP70 of Helicobacter pylori and alters its coccoid morphology” (Scientific Reports, 2015).

Key:
DnaK (H. pylori HSP70) = molecular target: T1, DnaK (H. pylori HSP70) (Helicobacter pylori, UniProt P55994); assay: SPR (BIAcore […]), DnaK amine-coupled to CM5 chip; format: binding
T1 construct: full length cloned from genomic DNA of ATCC43504 in pCold I (vector His tag, cleavage not mentioned), E. coli BL21, Ni-NTA
T1 sequence (P55994 2-620): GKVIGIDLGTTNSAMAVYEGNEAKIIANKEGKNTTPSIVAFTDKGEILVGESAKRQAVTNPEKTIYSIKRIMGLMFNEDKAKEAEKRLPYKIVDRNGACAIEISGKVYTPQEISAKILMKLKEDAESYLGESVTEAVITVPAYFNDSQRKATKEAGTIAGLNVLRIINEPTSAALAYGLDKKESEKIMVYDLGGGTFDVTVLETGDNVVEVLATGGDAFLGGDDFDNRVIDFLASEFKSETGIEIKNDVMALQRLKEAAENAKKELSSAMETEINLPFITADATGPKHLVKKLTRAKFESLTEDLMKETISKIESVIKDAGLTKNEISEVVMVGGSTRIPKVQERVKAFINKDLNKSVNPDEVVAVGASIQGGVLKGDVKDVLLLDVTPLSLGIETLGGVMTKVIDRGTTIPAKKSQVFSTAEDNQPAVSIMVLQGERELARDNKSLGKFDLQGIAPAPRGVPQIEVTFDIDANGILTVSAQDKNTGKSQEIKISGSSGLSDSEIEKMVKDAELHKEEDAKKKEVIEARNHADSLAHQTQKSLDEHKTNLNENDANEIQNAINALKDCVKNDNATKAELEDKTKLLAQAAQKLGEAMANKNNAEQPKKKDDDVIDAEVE

HSP70 (human HSP70) [1] = molecular target: T2, HSP70 (human HSP70) (Homo sapiens, UniProt P0DMV8); assay: SPR (BIAcore […]), HSP70 amine-coupled to CM5 chip; format: binding
T2 construct: gene HSPA1A; full-length cDNA (from R. Morimoto) in pCold I (vector His tag, cleavage not mentioned); forward primer encodes N-terminus MAKAAAV

HSP70 (human HSP70) [2] = molecular target: T2, HSP70 (human HSP70); assay: citrate synthase thermal aggregation (light scattering, […] nm); format: biochemical; settings: 50 mM HEPES pH 7.4, 50 C; 50 μM HSP70, 0.25 μM citrate synthase, 5 mM GGA

T2 sequence (P0DMV8 whole entry): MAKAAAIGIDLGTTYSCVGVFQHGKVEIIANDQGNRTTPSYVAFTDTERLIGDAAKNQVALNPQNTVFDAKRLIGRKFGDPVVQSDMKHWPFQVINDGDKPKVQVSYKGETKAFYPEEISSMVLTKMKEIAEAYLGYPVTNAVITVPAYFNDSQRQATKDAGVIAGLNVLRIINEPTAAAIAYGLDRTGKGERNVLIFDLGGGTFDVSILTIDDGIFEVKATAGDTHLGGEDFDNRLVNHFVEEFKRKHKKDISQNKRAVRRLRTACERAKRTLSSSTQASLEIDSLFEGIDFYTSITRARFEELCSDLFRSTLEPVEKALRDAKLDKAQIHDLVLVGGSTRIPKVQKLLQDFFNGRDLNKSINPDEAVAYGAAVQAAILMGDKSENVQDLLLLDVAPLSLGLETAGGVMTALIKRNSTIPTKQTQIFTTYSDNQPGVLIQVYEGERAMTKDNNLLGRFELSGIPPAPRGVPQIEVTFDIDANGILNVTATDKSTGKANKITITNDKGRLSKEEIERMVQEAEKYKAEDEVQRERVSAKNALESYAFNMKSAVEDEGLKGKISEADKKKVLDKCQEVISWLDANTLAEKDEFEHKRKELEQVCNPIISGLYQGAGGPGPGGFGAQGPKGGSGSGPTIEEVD

For `CC(=O)CC/C=C(\C)CC/C=C(\C)CC/C=C(\C)CCC=C(C)C` [GGA, 6,10,14,18-tetramethyl-5,9,13,17-nonadecatetraen-2-one], the Kd (DnaK (H. pylori HSP70)) was 75.5 nM, the Kd (HSP70 (human HSP70) [1]) was 2000 nM and the “% reduction of chaperone activity at 5 mM” value (HSP70 (human HSP70) [2]) was 15%.
